From the RepoRT retention time repository

Test: RP, Waters ACQUITY UPLC BEH C18, 50 × 2.1 mm, 1.7 µm, 40 °C, 0.6 mL/min, estimated dead time 0.18 min; A: water + 0.1% formic acid, pH 3; B: acetonitrile + 0.1% formic acid, pH 3; gradient (min/%B) 0/5 7/100 8/100
Details: stereoisomer not certain

| Compound | LC retention time [min] |
| --- | --- |
| C[C@@H]1CC2(NCCS2)[C@]2(O)OC3C[C@@]4(C=O)C(CCC5C4CC[C@]4(C)C(C6=CC(=O)OC6)CC(O)[C@]54O)CC3OC2O1 (stereo partly drawn) | 0.365 |
| CC(C)=CCC1CC2(CC=C(C)C)C(O)=C(C(=O)C(C)C)C(=O)OC2=C(C(CC(=O)O)c2ccccc2)C1(C)C (stereo not drawn) | 6.13 |
| CC[C@H]1NC2C[C@@]3(C(=O)N(OC)c4cc(OC)ccc43)C3CC1C2CO3 (stereo partly drawn) | 1.95 |
| COc1cc(C=O)c([N+](=O)[O-])cc1OC [4,5-dimethoxy-2-nitrobenzaldehyde] | 0.304 |
| CC[C@H]1C[C@H]2CN3CCc4c([nH]c5ccc(OC)cc45)[C@](C(=O)OC)(C2)C13 | 2.02 |
| COc1ccc(-c2oc3cc(OC)c(OC)c(O)c3c(=O)c2OC)cc1O | 2.62 |
| CC(=O)O[C@@H](C[C@@H](C)C1=C2CC(O)C3[C@@]4(C)CCC(=O)C(C)(C)C4CC[C@]3(C)[C@@]2(C)CC1)[C@H]1OC1(C)C (stereo partly drawn) | 5.4 |
| C[C@@H]1CC2(N=CCS2)[C@]2(O)OC3C[C@@]4(C=O)C(CCC5C4CC[C@]4(C)C(C6=CC(=O)OC6)CC[C@]54O)CC3OC2O1 (stereo partly drawn) | 0.662 |
| C=CCc1ccc(O)c(-c2ccc(O)c(CC=C)c2)c1 [3',5-bis(prop-2-en-1-yl)-[1,1'-biphenyl]-2,4'-diol] | 3.18 |
| CCN1CC2(COC(=O)c3ccccc3NC(=O)C(C)CC(=O)O)CCC(OC)C34C5CC6C(OC)CC(O)(C5C6OC)C(O)(C(OC)C23)C14 (stereo not drawn) | 2.37 |
| CCN1CC2(COC(=O)c3ccccc3N)CCC(OC)C34C5CC6C(OC)CC(O)(C5C6OC)C(O)(C(OC)C23)C14 (stereo not drawn) | 2.4 |
| C/C(=C/CC[C@H](C)[C@@H]1CC[C@]2(C)C3=CCC4C(C)(C)C(=O)CC[C@]4(C)C3CC[C@@]12C)C(=O)O (stereo partly drawn) | 6.25 |
| COc1c(C=O)c(O)cc2c1C(=O)c1ccccc1C2=O | 3.59 |
| C=C(C(=O)C(OC(C)=O)C(C)C1C(OC(C)=O)CC2(C)C3CCC4C(C)C(=O)C=CC45CC35CCC12C)C(C)C (stereo not drawn) | 5.46 |
| COc1c(O)c(O)c(-c2c(O)c(O)c(OC)c3oc4ccccc4c23)c2c1oc1ccccc12 | 3.58 |
| C=C(C(=O)C(OC(C)=O)C(C)C1C(OC(C)=O)CC2(C)C3C4OC4C4C(C)C(=O)C=CC45CC35CCC12C)C(C)CO (stereo not drawn) | 3.48 |
| C=C(C(=O)C(OC(C)=O)C(C)C1C(OC(C)=O)CC2(C)C3CCC4C(C)C(=O)C=CC45CC35CCC12C)C(C)CO (stereo not drawn) | 4.41 |
| CC[C@H]1NC2C[C@@]3(C(=O)N(OC)c4cc(OC)ccc43)C3OCC2C1[C@@H]3O (stereo partly drawn) | 1.32 |
| COc1ccc(-c2oc3cc(O)c(OC)c(O)c3c(=O)c2OC)cc1O | 2.2 |
| C=C(CO)C(=O)OC1CC(=C)C2CC(=O)C(C)C2C2OC(=O)C(=C)C12 (stereo not drawn) | 3.08 |
| COC(=O)C1=CC(O)C23OOC1CC2(C)CCC3C(C)C (stereo not drawn) | 3.72 |
| COc1cc(/C=C/C(=O)OCC(Cc2ccc(O)c(OC)c2)C(COC(C)=O)Cc2ccc(O)c(OC)c2)ccc1O (stereo not drawn) | 2.3 |
| COc1ccc(Cc2nccc3cc(OC)c(OC)cc23)cc1OC [1-[(3,4-dimethoxyphenyl)methyl]-6,7-dimethoxyisoquinoline] | 1.79 |
| C/C=C1/CN(C)C[C@H]2Cc3c([nH]c4ccccc34)C(=O)C[C@@H]12 | 1.62 |
| CC1CC(O)C2(C)C(CCC(O)C2(C)O)C1(C)CC(=O)c1ccoc1 (stereo not drawn) | 2.35 |

| Compound | LC retention time [min] |
| --- | --- |
| C=C(C(=O)CC(C)C1CCC2(C)C3CCC4C(C)(C(=O)OC5OC(C)C(O)C(O)C5O)C(O)CCC45CC35CCC12C)C(C)C (stereo not drawn) | 5.23 |
| C[C@@H]1O[C@H](O[C@@H]2[C@@H](O)[C@H](OCCc3ccc(O)c(O)c3)O[C@H](CO)[C@H]2OC(=O)/C=C/c2ccc(O)c(O)c2)[C@H](O)[C@H](O)[C@H]1O | 0.258 |
| C=C1C2CCC3C4(C)CCCC(C)(C(=O)O)C4CCC3(C2)C1O (stereo not drawn) | 3.64 |
| COc1c(O)c(C(=O)C2CC=C(CCC=C(C)C)CC2c2ccccc2)c(OC)c(OC)c1OC (stereo not drawn) | 5.69 |
| COc1ccc(C(=O)[C@@H](c2coc3cc(O)ccc3c2=O)C(c2ccc(O)cc2)c2ccc(O)cc2)c(OC)c1 | 3.68 |
| CCC1C2CCCCN3CCC(C4C(C)C(=O)OC14)C23 (stereo not drawn) | 1.34 |
| COc1cc2c3c(c1OC)Oc1ccc(cc1)CC1c4c(cc(OC)c5c4Oc4ccc(cc4CO5)CC3N(C)CC2)CCN1C (stereo not drawn) | 1.6 |
| CC[C@@H]1CN(C)C[C@@]2(C(=O)OC)Cc3c([nH]c4ccccc34)C(=O)C[C@@H]12 | 1.76 |
| O=C1CC(c2ccc(O)cc2)Oc2cc3c(c(O)c21)C(C(=O)c1ccc(O)cc1O)C(c1ccc(O)cc1)O3 (stereo not drawn) | 2.78 |
| C=C(C)C(CC=C(C)C)Cc1c(O)cc(OC)c2c1OC(c1ccc(O)cc1O)CC2=O (stereo not drawn) | 4.6 |
| COc1ccc2c(c1OC)C(=O)OC2C1c2c(cc3c(c2OC)OCO3)CCN1C (stereo not drawn) | 1.83 |
| CC(=O)OC1CC(O)C23COCC1(C)C2CC(O)C1(C)C3C(=O)C(O)C2(C)C(c3ccoc3)CC3OC321 (stereo not drawn) | 2.27 |
| Oc1ccc(C2c3c(O)cc(O)cc3C3C(c4ccc(O)cc4)c4c(O)cc(O)cc4C23)cc1 (stereo not drawn) | 1.77 |
| C[C@H](C/C=C/C(C)(C)O)[C@H]1CC[C@@]2(C)C3C(=O)C=C4C(CCC(O)C4(C)C)[C@]3(C)CC[C@]12C (stereo partly drawn) | 4.37 |
| C=C(C)C(CCC(C)(C)O)Cc1c(O)cc(O)c2c1OC(c1ccc(O)cc1O)CC2=O (stereo not drawn) | 2.97 |
| COc1cc2c(cc1OC)Oc1c(O)ccc3c1C(C2)N(C)CC3 (stereo not drawn) | 1.37 |
| COC1=C(C)C(=O)O/C1=C1\OC2CCCN3C(C4CC(C)C(=O)O4)CCC3C2C1C (stereo not drawn) | 1.55 |
| CC1CC2CCCC3N4C(=O)CCCC4CC(C1)N23 (stereo not drawn) | 0.978 |
| C/C=C/C(=O)CC1C(=O)C=CC1(CCCCCCCC(=O)O)OC(C)=O (stereo not drawn) | 2.74 |
| O=C(c1ccc(O)cc1O)[C@H]1[C@H](C(=O)c2ccc(O)cc2O)[C@H](c2ccc(O)cc2)O[C@@H]1c1ccc(O)cc1 | 2.81 |
| CCC(C)C(=O)C1=C(O)C2(CC=C(C)C)CC(CCC(C)(C)O)C(C)(C)C(C(CC(=O)O)c3ccccc3)=C2OC1=O (stereo not drawn) | 5 |
| CCCCCCCCCCCCCCCC(=O)OC12CC(C)C3(O)C(C4OC4(CO)C(O)C4(O)C(=O)C(C)=CC43)C1C2(C)C (stereo not drawn) | 6.96 |
| CC(C)=CCCC(C)C12C=CC(C)(CC1)OO2 (stereo not drawn) | 4.96 |
| CC(C)=CCC1CC23CC(CC=C(C)C)C(C)(C)C(CC=C(C)C)(C(=O)C(C(=O)c4ccc(O)c(O)c4)=C2OC1(C)C)C3=O (stereo not drawn) | 5.93 |
| CC12CCCc3coc(c31)C(=O)c1cc3c(cc12)C(=O)C=CC3=O (stereo not drawn) | 2.6 |

| Compound | LC retention time [min] |
| --- | --- |
| C=C(C)C12CC(C)C34OC(CCCCCCCCCCCCC)(OC1C3C1OC1(CO)C(O)C1(O)C(=O)C(C)=CC14)O2 (stereo not drawn) | 6.97 |
| CC(C)=CCCC(C)=CCC1=Cc2c(O)c3c(c(CC=C(C)C)c2OC1O)OC12C(=CC4CC1C(C)(C)OC2(CC=C(C)C(=O)O)C4=O)C3=O (stereo not drawn) | 6.07 |
| COC1=CC(=O)C2(c3cc(=O)c4c(O)cc(O)cc4o3)C(CC=C(C)C2C[C@H]2[C@@H](C)[C@@H](O)C[C@H]3C(C)(C)C[C@H](O)C[C@]23C)C1=O (stereo partly drawn) | 1.14 |
| C/C=C(/C)C(=O)OC1CCC2CC3(O)OC(=O)C(C)=C3CC2(C)C1C (stereo not drawn) | 4.16 |
| CC(C)=CC1CC(C2CCC3(C)C4=CCC5C(C)(C)C(O)CCC5(C)C4CC(C=O)=C23)C(O)O1 (stereo not drawn) | 5.19 |
| COc1ccc2c3c(c4cc(OC)c(OC)cc4c2c1)CC1CCCN1C3 (stereo not drawn) | 2.27 |
| COc1cc(CCN(C)C)c2ccc3cc4c(c5c3c2c1OC5)OCO4 | 2.24 |
| C/C=C1\CN2CCc3c([nH]c4ccccc34)[C@@H]2C[C@@H]1/C(=C\OC)C(=O)OC | 2.41 |
| CC1CC(C2CCC3N2CCCCC32CC(C)C(=O)O2)OC1=O (stereo not drawn) | 1.07 |
| CCC(C)C(=O)C1=C(O)C2(CC=C(C)C)CC(CCC(C)(C)OC(=O)C(F)(F)F)C(C)(C)C(C(CC(=O)O)c3ccccc3)=C2OC1=O (stereo not drawn) | 6.11 |
| CCCCCCCCCCCCO[C@@H]1O[C@@H](C)[C@H](O[C@@H]2O[C@@H](C)[C@H](OC(C)=O)[C@@H](O[C@@H]3O[C@@H](C)[C@H](OC(C)=O)[C@@H](O[C@@H]4O[C@@H](C)[C@H](OC(C)=O)[C@@H](OC(C)=O)[C@H]4O)[C@H]3OC(C)=O)[C@H]2O)[C@@H](O)[C@H]1O | 6.09 |
| COC(=O)[C@@]12C[C@@H]3C[C@H]([C@H](C)O)C1N(CCc1c2[nH]c2ccccc12)C3 | 1.91 |
| Cc1coc2c1C(=O)C(=O)c1c-2ccc2c(C)cccc12 [1,6-dimethyl-10H,11H-phenanthro[1,2-b]furan-10,11-dione] | 3.42 |
| COc1ccc2c3c1OC1C(O)C=CC4C(C2)N(C)CCC341 (stereo not drawn) | 0.85 |
| CC1CCC2(OC1)OC1CC3C4C(O)C(=O)C5(O)C(O)C(O)C(O)C(O)C5(C)C4CCC3(C)C1C2C (stereo not drawn) | 3.19 |
| COc1c(O)c(OC)c(C(=O)C2CC=C(CCC=C(C)C)CC2c2ccccc2)c(O)c1OC (stereo not drawn) | 5.76 |
| C=C(C)[C@@]12OC3(/C=C/C=C\CCCCC)O[C@@H]1C1[C@@H]4O[C@]4(CO)[C@@H](O)[C@]4(O)C(=O)C(C)=CC4[C@@]1(O3)[C@H](C)[C@H]2OC(=O)c1ccccc1 (stereo partly drawn) | 5.88 |
| COc1ccc2cc1-c1cc(ccc1O)C[C@@H]1NCCc3cc4c(cc31)Oc1c(c(OC)c(O)c3c1[C@H](C2)N(C)CC3)O4 | 1.69 |
| CC(=O)OC1CC(O)C23COC(O)C1(C)C2CC(O)C1(C)C3=C(O)C(=O)C2(C)C(c3ccoc3)CC3OC312 (stereo not drawn) | 2.39 |
| CC1(C)CCC[C@]2(COC(=O)/C=C/c3ccc(O)c(O)c3)C1CC[C@@]13C[C@@H](CCC12)[C@@](O)(CO)C3 (stereo partly drawn) | 3.16 |
| CCC(O)C(/C=C1\C(=O)C=CC1(O)CCCCCCCC(=O)OC)OC(C)=O (stereo not drawn) | 3.08 |
| CC(C)(O)/C=C/C(=O)[C@](C)(O)[C@H]1[C@H](O)C[C@@]2(C)C3CC=C4C(C=C(O)C(=O)C4(C)C)[C@]3(C)C(=O)C[C@]12C (stereo partly drawn) | 3 |
| COc1cc(CC(COC(C)=O)C(COC(=O)/C=C/c2ccc(O)c(O)c2)Cc2ccc(O)c(OC)c2)ccc1O (stereo not drawn) | 1.83 |
